Assay results reported in patent publication US12391646B2, “Using adiponectin receptor agonists to treat inflammation and bone diseases in diabetes” (Trustees of Tufts College, priority 2020, dated 2025).

Legend:
[1] = cited from earlier work
[2] = test system: LPS-stimulated bone marrow-derived macrophages (BMMs); assay: qRT-PCR of IL-6 and IL-1β mRNA in LPS-stimulated BMMs; type: cell-based, C57BL/6J mice; conditions: AdipoAI 5 μM compared with compound 5 (5 μM) and APR (20 μM)

Protocol for RAW 264.7 cells: RAW 264.7 cells were treated with receptor activator of nuclear factor KB ligand (RANKL) (100 ng/ml) for 2 days with or without AdipoRon (20 μM) or AdipoAI (5 μM) for another 2 days. […] (C) The CCK-8 analysis of RAW 264.7 cells treated with 20 μM AdipoRon or 5 μM AdipoAI for 48 h. (D) The CCK-8 analysis of RAW 264.7 cells' proliferation at different doses of APR and AdipoAI. Cells were treated with 100 ng/ml RANKL for 2 days with or without AdipoRon (5, 20 μM) or AdipoAI (5, 20 μM) every 2 days for 4 days. […] Data are shown as mean±SD., compared with the vehicle-treated group, *P<0.05. **P<0.01. ***P<0.001.
RAW 264.7 cells (2×10^3 cells/well) were seeded in 96-well plates and treated with or without AdipoRon or AdipoAI for 48 hours in a humidified chamber at 37° C. in 5% CO2 and air. Cell viability was determined with the Cell Counting Kit-8 (CCK-8 kit, Dojindo, Santa Clara, CA, USA) following the manufacturer's recommendations. Briefly, CCK-8 solution (10 μL) was added to each well and cells were incubated in dark for 3 hours. Cell viability was determined by measuring the absorbance at 450 nm.

SMILES	solubility [1]	number of RAW 264.7 cells (CCK-8) at 20 μM (RAW 264.7 cells)	number of RAW 264.7 cells (CCK-8) at 5 μM (RAW 264.7 cells; mouse, 48 h, 5 μM)	inhibition of LPS-stimulated IL-6 and IL-1β expression in BMMs [2]
O=C(COc1ccc(C(=O)c2ccccc2)cc1)NC1CCN(Cc2ccccc2)CC1 [AdipoRon, reference compound]	relatively low solubility	–	–	–
COc1ccc(CN2CCC(NC(=O)COc3ccc(C(=O)c4ccc(Cl)cc4)cc3)CC2)cc1 [Compound 3]	–	reduced cell number	did not reduce the number of RAW 264.7 cells	strongest inhibitory effects
